Reference: the NIST ThermoML archive (doi:10.1016/j.jct.2003.11.008)
± gives the expanded uncertainty stated by the source.

Experiments:
[1] = xn = mol fraction of the nth substance listed; details: 318.15 K, 101.3 kPa, Liquid
[2] = excess molar enthalpy (molar enthalpy of mixing); xn = mol fraction of the nth substance listed; details: 318.15 K, 101.3 kPa, Liquid
[3] = refractive index (Na D-line) (dimensionless); details: 318.15 K; 101.33 kPa; Liquid; Standard Abbe refractometry
[4] = 318.15 K; 101.33 kPa; Liquid; Vibrating tube method

CCCCCCCCCCCCC [tridecane] + COC(C)=O
Details	excess molar enthalpy [kcal/mol]	excess molar volume [m3/mol]
[1], x2 = 0.1152	–	6.95e-07 ± 1.9e-08
[1], x2 = 0.195	–	1.093e-06 ± 2.1e-08
[1], x2 = 0.2573	–	1.364e-06 ± 2.2e-08
[1], x2 = 0.3086	–	1.537e-06 ± 2.3e-08
[1], x2 = 0.357	–	1.665e-06 ± 2.3e-08
[1], x2 = 0.4302	–	1.838e-06 ± 2.4e-08
[1], x2 = 0.5045	–	1.919e-06 ± 2.4e-08
[1], x2 = 0.561	–	1.946e-06 ± 2.5e-08
[1], x2 = 0.6192	–	1.917e-06 ± 2.4e-08
[1], x2 = 0.666	–	1.849e-06 ± 2.4e-08
[1], x2 = 0.7125	–	1.753e-06 ± 2.4e-08
[1], x2 = 0.7495	–	1.651e-06 ± 2.3e-08
[1], x2 = 0.8399	–	1.288e-06 ± 2.1e-08
[1], x2 = 0.8997	–	9.51e-07 ± 2e-08
[1], x2 = 0.9425	–	6.18e-07 ± 1.8e-08
[1], x2 = 0.9745	–	2.97e-07 ± 1.7e-08
[2], x2 = 0.1268	0.197 ± 0.00335	–
[2], x2 = 0.2391	0.341 ± 0.00574	–
[2], x2 = 0.3316	0.448 ± 0.00741	–
[2], x2 = 0.4097	0.517 ± 0.00837	–
[2], x2 = 0.4693	0.553 ± 0.00884	–
[2], x2 = 0.5214	0.571 ± 0.00908	–
[2], x2 = 0.5635	0.578 ± 0.00932	–
[2], x2 = 0.5965	0.581 ± 0.00932	–
[2], x2 = 0.6319	0.574 ± 0.00932	–
[2], x2 = 0.6706	0.559 ± 0.00908	–
[2], x2 = 0.7114	0.534 ± 0.0086	–
[2], x2 = 0.7533	0.504 ± 0.00813	–
[2], x2 = 0.7939	0.461 ± 0.00741	–
[2], x2 = 0.8383	0.402 ± 0.00669	–
[2], x2 = 0.883	0.33 ± 0.0055	–
[2], x2 = 0.9274	0.242 ± 0.00406	–
[2], x2 = 0.9665	0.133 ± 0.00239	–

CCCCCCCCCCC [undecane]
Details	mass density [kg/m3]	refractive index
[3]	–	1.4063 ± 0.0008
[4]	721.76 ± 0.41	–

CCCCCCCCCCC [undecane] + CCCCOC(C)=O
Details	excess molar enthalpy [kcal/mol]	excess molar volume [m3/mol]
[1], x2 = 0.0356	–	1.49e-07 ± 1.6e-08
[1], x2 = 0.0842	–	3.26e-07 ± 1.7e-08
[1], x2 = 0.1543	–	5.21e-07 ± 1.8e-08
[1], x2 = 0.2226	–	6.82e-07 ± 1.9e-08
[1], x2 = 0.288	–	7.97e-07 ± 1.9e-08
[1], x2 = 0.35	–	8.56e-07 ± 1.9e-08
[1], x2 = 0.407	–	9.28e-07 ± 2e-08
[1], x2 = 0.4636	–	9.43e-07 ± 2e-08
[1], x2 = 0.5172	–	9.66e-07 ± 2e-08
[1], x2 = 0.5676	–	9.44e-07 ± 2e-08
[1], x2 = 0.6153	–	9.27e-07 ± 2e-08
[1], x2 = 0.6613	–	8.79e-07 ± 2e-08
[1], x2 = 0.7042	–	8.17e-07 ± 1.9e-08
[1], x2 = 0.7392	–	7.75e-07 ± 1.9e-08
[1], x2 = 0.8289	–	5.74e-07 ± 1.8e-08
[1], x2 = 0.8978	–	3.84e-07 ± 1.7e-08
[1], x2 = 0.9408	–	2.33e-07 ± 1.7e-08
[2], x2 = 0.0677	0.08 ± 0.00163	–
[2], x2 = 0.1493	0.151 ± 0.00263	–
[2], x2 = 0.2299	0.21 ± 0.00359	–
[2], x2 = 0.3113	0.255 ± 0.0043	–
[2], x2 = 0.3836	0.282 ± 0.00478	–
[2], x2 = 0.4482	0.296 ± 0.00502	–
[2], x2 = 0.5078	0.3 ± 0.00502	–
[2], x2 = 0.5555	0.295 ± 0.00502	–
[2], x2 = 0.5708	0.292 ± 0.00502	–
[2], x2 = 0.6136	0.28 ± 0.00478	–
[2], x2 = 0.6586	0.265 ± 0.00454	–
[2], x2 = 0.7055	0.248 ± 0.0043	–
[2], x2 = 0.7534	0.225 ± 0.00382	–
[2], x2 = 0.7837	0.206 ± 0.00359	–
[2], x2 = 0.832	0.173 ± 0.00311	–
[2], x2 = 0.8778	0.135 ± 0.00239	–
[2], x2 = 0.9233	0.0902 ± 0.00177	–
[2], x2 = 0.9637	0.0459 ± 0.0011	–

CCCCCCCCCCC [undecane] + CCCOC(C)=O
Details	excess molar enthalpy [kcal/mol]	excess molar volume [m3/mol]
[1], x2 = 0.0791	–	3.43e-07 ± 1.7e-08
[1], x2 = 0.1544	–	6e-07 ± 1.8e-08
[1], x2 = 0.2306	–	8.2e-07 ± 1.9e-08
[1], x2 = 0.2908	–	9.49e-07 ± 2e-08
[1], x2 = 0.3479	–	1.051e-06 ± 2e-08
[1], x2 = 0.4046	–	1.133e-06 ± 2.1e-08
[1], x2 = 0.4573	–	1.159e-06 ± 2.1e-08
[1], x2 = 0.51	–	1.176e-06 ± 2.1e-08
[1], x2 = 0.5596	–	1.185e-06 ± 2.1e-08
[1], x2 = 0.6019	–	1.165e-06 ± 2.1e-08
[1], x2 = 0.6553	–	1.125e-06 ± 2.1e-08
[1], x2 = 0.6903	–	1.077e-06 ± 2.1e-08
[1], x2 = 0.7637	–	9.27e-07 ± 2e-08
[1], x2 = 0.8486	–	6.89e-07 ± 1.9e-08
[1], x2 = 0.9127	–	4.52e-07 ± 1.8e-08
[1], x2 = 0.9592	–	2.26e-07 ± 1.7e-08
[2], x2 = 0.0814	0.103 ± 0.00198	–
[2], x2 = 0.1501	0.173 ± 0.00311	–
[2], x2 = 0.2265	0.24 ± 0.00406	–
[2], x2 = 0.2928	0.288 ± 0.00478	–
[2], x2 = 0.3534	0.32 ± 0.00526	–
[2], x2 = 0.4082	0.341 ± 0.00574	–
[2], x2 = 0.4582	0.354 ± 0.00598	–
[2], x2 = 0.5031	0.358 ± 0.00598	–
[2], x2 = 0.5439	0.358 ± 0.00598	–
[2], x2 = 0.5841	0.354 ± 0.00598	–
[2], x2 = 0.6226	0.345 ± 0.00574	–
[2], x2 = 0.6441	0.332 ± 0.0055	–
[2], x2 = 0.6911	0.312 ± 0.00526	–
[2], x2 = 0.7407	0.285 ± 0.00478	–
[2], x2 = 0.7924	0.25 ± 0.0043	–
[2], x2 = 0.8458	0.198 ± 0.00335	–
[2], x2 = 0.8971	0.141 ± 0.00263	–
[2], x2 = 0.9495	0.078 ± 0.0016	–

CCCCCCCCCCC [undecane] + CCOC(C)=O
Details	excess molar enthalpy [kcal/mol]	excess molar volume [m3/mol]
[1], x2 = 0.0632	–	3.65e-07 ± 3.4e-08
[1], x2 = 0.1076	–	5.64e-07 ± 3.6e-08
[1], x2 = 0.1921	–	8.99e-07 ± 3.9e-08
[1], x2 = 0.2759	–	1.151e-06 ± 4.2e-08
[1], x2 = 0.3521	–	1.328e-06 ± 4.3e-08
[1], x2 = 0.4213	–	1.429e-06 ± 4.4e-08
[1], x2 = 0.4771	–	1.49e-06 ± 4.5e-08
[1], x2 = 0.5319	–	1.504e-06 ± 4.5e-08
[1], x2 = 0.5859	–	1.504e-06 ± 4.5e-08
[1], x2 = 0.6355	–	1.461e-06 ± 4.5e-08
[1], x2 = 0.6817	–	1.385e-06 ± 4.4e-08
[1], x2 = 0.7223	–	1.311e-06 ± 4.3e-08
[1], x2 = 0.7656	–	1.17e-06 ± 4.2e-08
[1], x2 = 0.7889	–	1.147e-06 ± 4.2e-08
[1], x2 = 0.8628	–	8.46e-07 ± 3.9e-08
[1], x2 = 0.9234	–	5.39e-07 ± 3.6e-08
[1], x2 = 0.9664	–	2.63e-07 ± 3.3e-08
[2], x2 = 0.1003	0.149 ± 0.00263	–
[2], x2 = 0.1944	0.252 ± 0.0043	–
[2], x2 = 0.2921	0.343 ± 0.00574	–
[2], x2 = 0.3767	0.402 ± 0.00669	–
[2], x2 = 0.4501	0.433 ± 0.00717	–
[2], x2 = 0.509	0.443 ± 0.00717	–
[2], x2 = 0.5537	0.441 ± 0.00717	–
[2], x2 = 0.5965	0.436 ± 0.00717	–
[2], x2 = 0.6065	0.433 ± 0.00717	–
[2], x2 = 0.6498	0.413 ± 0.00669	–
[2], x2 = 0.6942	0.39 ± 0.00645	–
[2], x2 = 0.7366	0.364 ± 0.00598	–
[2], x2 = 0.7848	0.326 ± 0.0055	–
[2], x2 = 0.8361	0.272 ± 0.00454	–
[2], x2 = 0.8884	0.206 ± 0.00359	–
[2], x2 = 0.9357	0.141 ± 0.00263	–
[2], x2 = 0.9742	0.0596 ± 0.00136	–

CCCCCCCCCCC [undecane] + COC(C)=O
Details	excess molar enthalpy [kcal/mol]	excess molar volume [m3/mol]
[1], x2 = 0.1232	–	7.69e-07 ± 1.9e-08
[1], x2 = 0.2463	–	1.347e-06 ± 2.2e-08
[1], x2 = 0.3266	–	1.58e-06 ± 2.3e-08
[1], x2 = 0.3942	–	1.734e-06 ± 2.4e-08
[1], x2 = 0.4679	–	1.879e-06 ± 2.4e-08
[1], x2 = 0.5333	–	1.922e-06 ± 2.4e-08
[1], x2 = 0.5823	–	1.908e-06 ± 2.4e-08
[1], x2 = 0.6365	–	1.851e-06 ± 2.4e-08
[1], x2 = 0.68	–	1.765e-06 ± 2.4e-08
[1], x2 = 0.7221	–	1.676e-06 ± 2.3e-08
[1], x2 = 0.76	–	1.554e-06 ± 2.3e-08
[1], x2 = 0.7954	–	1.415e-06 ± 2.2e-08
[1], x2 = 0.8183	–	1.337e-06 ± 2.2e-08
[1], x2 = 0.8875	–	9.9e-07 ± 2e-08
[1], x2 = 0.935	–	6.43e-07 ± 1.8e-08
[1], x2 = 0.9683	–	3.52e-07 ± 1.7e-08
[2], x2 = 0.1	0.161 ± 0.00287	–
[2], x2 = 0.203	0.297 ± 0.00502	–
[2], x2 = 0.2975	0.406 ± 0.00669	–
[2], x2 = 0.3707	0.475 ± 0.00765	–
[2], x2 = 0.4315	0.516 ± 0.00837	–
[2], x2 = 0.4836	0.538 ± 0.0086	–
[2], x2 = 0.528	0.547 ± 0.00884	–
[2], x2 = 0.5612	0.549 ± 0.00884	–
[2], x2 = 0.5935	0.548 ± 0.00884	–
[2], x2 = 0.6178	0.544 ± 0.00884	–
[2], x2 = 0.6538	0.533 ± 0.0086	–
[2], x2 = 0.6915	0.517 ± 0.00837	–
[2], x2 = 0.7306	0.494 ± 0.00813	–
[2], x2 = 0.769	0.463 ± 0.00765	–
[2], x2 = 0.8102	0.418 ± 0.00693	–
[2], x2 = 0.851	0.37 ± 0.00621	–
[2], x2 = 0.888	0.299 ± 0.00502	–
[2], x2 = 0.9283	0.223 ± 0.00382	–
[2], x2 = 0.9664	0.124 ± 0.00237	–
